# Source: patent US10859587B2, “Application of artificially expressed HSP27 protein in detecting a residue of a β2-adrenergic receptor agonist-based drug” (HENAN ACADEMY OF AGRICULTURAL SCIENCE, priority 2016, dated 2020)
# Tests used:
# [1] = system: artificially expressed HSP27 protein; experiment: ELISA binding experiment between HSP27 protein and biotin-conjugated small molecules; details: 100 ng/mL biotin-conjugated small molecule; HSP27 coated in gradient from 100 μg/mL
# Method: 1. The bacteria solution of BL21 (DE3) host bacteria of artificially expressed HSP27 was subjected to ultrasonication, and then coated in gradient on a ELISA plate with an initial concentration of 100 μg/mL (based on the protein) in an amount of 50 μL/well;
# 2. 100 ng/mL of small molecules conjugated biotin was added into the resultant ELISA plate in an amount of 50 μL/well, mixed well on a shaker, and incubated at 37° C. for 30 min in the dark; the ELISA plate was washed with an ELISA plate washing machine for 4 times, or the liquid in the wells of the ELISA plate was manually removed by shaking out, each well was filled with diluted buffer solution, and then shaken out the liquid to dry again, and washing as repeated in this way for 4 times;
# 3. HRP-labeled streptavidin conjugate was added into the ELISA plate, and the reaction was carried out at 37° C. for 30 min; washing was performed in the same way as the above step for 4 times.
# 4. TMB solution was added into corresponding microwells according to the required amount of 100 μL per well, and the plate was shaken on the ELISA plate shaker for 30 s, and subjected to color development at room temperature for 10 min;
# 5. 50 μL of 2 mol/L sulfuric acid was added to each well to terminate the reaction, and the plate was shaken on the ELISA plate shaker for 30 s, and then the absorbance at 450 nm of each well was read with a microplate reader, and the results were judged (see FIG. 2 for the results).
# [2] = system: HSP27 polyclonal antiserum; experiment: ELISA identification of artificially expressed HSP27 protein with HSP27 polyclonal antiserum; format: binding; details: HSP27 1 μg/mL
# Method: The artificially expressed HSP27 protein at an optimal concentration was selected as a coating antigen, and coated on the ELISA plate in an amount of 50 μL/well. The plate was placed in a 37° C. constant temperature incubator for reaction for 2 h, washed with PBST for 4 times, and air-dried at room temperature. BSA with a mass fraction of 1% was added as a blocking solution in amount of 200 μL/well, and reaction was carried out at a constant temperature of 37° C. for 1 h. The resultant plate was washed with PBST for 4 times, and air-dried at room temperature. Then, HSP27 polyclonal antiserum with gradient concentrations was added at 50 μL/well, a negative control (NC) was set, and the plate was held at 37° C. for 30 min, and washed for 4 times. 50 μL of goat anti-mouse secondary antibody (1:1000) was added to each well, and the plate was held at 37° C. for 30 min, and then washed for 4 times. The color development reaction was carried out with TMB color developing solution in an amount of 100 μL/well, and 10 minutes later, the reaction was terminated with 50 μL of 2 mol/L H2SO4. The absorbance of each well was read at 450 nm with a microplate reader.
molecule,measurement,setting,value
CC(CCc1ccc(O)cc1)NCC(O)c1ccc(O)cc1 (racemic) [Ractopamine],"binding to HSP27 (ELISA, absorbance at 450 nm, FIG. 2)",[1],can bind to HSP27
CC(C)(C)NCC(O)c1cc(Cl)c(N)c(Cl)c1 (stereo not shown) [Clenbuterol],"binding to HSP27 (ELISA, absorbance at 450 nm, FIG. 2)",[1],can bind to HSP27
CC(Cc1ccc(O)cc1)NCC(O)c1cc(O)cc(O)c1 (stereo not shown) [Fenoterol],"binding to HSP27 (ELISA, absorbance at 450 nm, FIG. 2)",[1],can bind to HSP27
"artificially expressed HSP27 protein: HSP27 CDS cloned in pLSLa vector, expressed in BL21 (DE3) with IPTG, purified by agarose resin column",absorbance at 450 nm,[2]; serum dilution ratio 5000,4.00
same,absorbance at 450 nm,[2]; serum dilution ratio 10000,3.92
same,absorbance at 450 nm,[2]; serum dilution ratio 20000,4.00
same,absorbance at 450 nm,[2]; serum dilution ratio 40000,3.77
same,absorbance at 450 nm,[2]; serum dilution ratio 80000,3.50
same,absorbance at 450 nm,[2]; serum dilution ratio 160000,2.60
same,absorbance at 450 nm,[2]; serum dilution ratio 320000,1.63
same,absorbance at 450 nm,[2]; serum dilution ratio 640000,0.97
same,absorbance at 450 nm,[2]; serum dilution ratio 1280000,0.67
same,absorbance at 450 nm,[2]; serum dilution ratio 2560000,0.51
